Experimental data reported in patent publication US20090253796A1, “METHOD FOR TREATING VASCULAR DISEASE” (Research Foundation Itsuu Laboratory, priority 2002, published 2009).

What was measured:
[1] = test system: rabbit common iliac artery; test: Restenosis after indwelling of stent in common iliac artery; type: in vivo; settings: rabbits, oral 1 mg/kg every day, 4 weeks after indwelling of the stent, p<0.05 vs control group
Description: Internal diameter of a rabbit common iliac artery was measured by intravascular ultrasound imaging (IVUS), and then a balloon was expanded to a size of 1 to 1.1 times of the internal diameter and a stent was indwelled. After the indwelling, the internal diameter was measured again by IVUS to confirm that the internal diameter changed 1 to 1.1 times and the stent was precisely indwelled. For each of the control group and Am80-administrated group, 6 rabbits were used. The rabbits were orally administered with Am80 at a dose of 1 mg/kg every day, and 4 weeks after the indwelling of the stent, the arteries at the stent-indwelled sites were collected and fixed to examine tissue images. Serial sections were prepared for the proximal, intermediary, and distal positions within the stent, and areas of tunica media and intima were measured.

[2] = test system: human umbilical artery endothelial cells; test: BrdU uptake (proliferation) of endothelial cells; type: cell-based; settings: for ratio of uptake of BrdU relative to the uptake without Am80: Endothelial cell, 10% fetal bovine serum, BrdU added after 24 hours, measured for 4 hours
Description: (§1) Rat aorta smooth muscle cells and human umbilical artery endothelial cells were cultured in the presence of 10% fetal bovine serum, and added with Am80 at various concentrations. After 24 hours, BrdU was added to the culture medium, and BrdU uptake ability was measured for 4 hours. The ratios of uptake of BrdU at the various concentrations relative to the uptake obtained without addition of Am80 are summarized in the table. The BrdU uptake ability represents DNA synthesis ability in proportion to the proliferation.

[3] = test system: cuff-injured femoral arteries of wild-type mice (129SVxC57BL6); test: Cuff-injured femoral artery model; type: in vivo; settings: for neointima of injured blood vessel (in words) / granulation around the cuff (in words): 5 mg/kg/day
Description: Polyethylene tube cuffs were indwelled in femoral arteries of wild-type mice (129SVxC57BL6) to injure the arteries. Am80 was orally administered at a dose of 5 mg/kg/day, and after 5 weeks, appearance and cross sections of the injured sites were evaluated. Areas of neointima of the femoral artery covered with the tube cuff and granulation tissue around the cuff were measured.

[4] = test system: Rat aorta smooth muscle cells; test: BrdU uptake (proliferation) of smooth muscle cells; type: cell-based; settings: for ratio of uptake of BrdU relative to the uptake without Am80: Smooth muscle cell, 10% fetal bovine serum, BrdU added after 24 hours, measured for 4 hours
Description: as §1

[5] = test system: angiotensin II hypercardia model mice; test: Angiotensin II hypercardia model; type: in vivo
Description: Mice were administered with angiotensin II at a dose of 3.2 mg/kg/day for two weeks by using an osmotic pressure pump to prepare hypercardia models. After 2 weeks, hypercardia, stromal fibrosing, and fibrosing around coronary artery were observed.

[6] = test system: KLF5/BTEB2+/- mice; test: Cuff injury in KLF5/BTEB2+/- knockout mice; type: in vivo; settings: in which granulation was otherwise suppressed
Excerpt: It is known that various kinds of growth factors are induced in blood vessel walls against affections in the cardiovascular system remodeling. By using mice (KLF5/BTEB2+/−mice) with hetero-knockout of Zn finger type transcription factor KLF5/BTEB2, which is strongly expressed in neointima of injured blood vessels among such growth factors, studies were made to know whether or not the effect of proliferation of neointima was induced by the retinoid action.

CC1(C)CCC(C)(C)c2cc(NC(=O)c3ccc(C(=O)O)cc3)ccc21 [Am80]
ratio of intima/tunica media [1]: significantly decreased
ratio of uptake of BrdU relative to the uptake without Am80 ([2]; 0.3 μM): 95.1
ratio of uptake of BrdU relative to the uptake without Am80 ([2]; 1 μM): 109.4
ratio of uptake of BrdU relative to the uptake without Am80 ([2]; 3 μM): 104.0
ratio of uptake of BrdU relative to the uptake without Am80 ([2]; 10 μM): 102.1
antiproliferative action on vascular endothelial cells (in words) ([2]; summary statement): substantially no antiproliferative action
neointima of injured blood vessel (in words) ([3]; mice, oral 5 mg/kg/day, after 5 weeks, compared with control mice): significantly decreased
neointima of injured blood vessel (in words) ([3]; mice, oral 5 mg/kg/day, after 5 weeks, compared with control mice; listed as 4-[5,6,7,8-tetrahydro-5,5,8,8-tetramethyl-2-naphthalenyl)carbamoyl]benzoic acid): superior antiproliferative action on neointima
granulation around the cuff (in words) ([3]; mice, oral 5 mg/kg/day, after 5 weeks, compared with mice not administered): markedly suppressed
granulation around the cuff (in words) ([3]; mice, oral 5 mg/kg/day, after 5 weeks, compared with mice not administered; listed as 4-[5,6,7,8-tetrahydro-5,5,8,8-tetramethyl-2-naphthalenyl)carbamoyl]benzoic acid): markedly suppressed granulation
Neointima area ([3]; mice, oral 5 mg/kg/day, after 5 weeks, control mice 0.0117 mm^2): 0.0019 mm^2
Granulation tissue area ([3]; mice, oral 5 mg/kg/day, after 5 weeks, control mice 1.08 mm^2): 0.44 mm^2
ratio of uptake of BrdU relative to the uptake without Am80 ([4]; 0.3 μM): 95.5
ratio of uptake of BrdU relative to the uptake without Am80 ([4]; 1 μM): 78.5
ratio of uptake of BrdU relative to the uptake without Am80 ([4]; 3 μM): 74.4
ratio of uptake of BrdU relative to the uptake without Am80 ([4]; 10 μM): 68.8
antiproliferative action on vascular smooth muscle cells (in words) ([4]; summary statement): substantially had antiproliferative action
onsets of hypercardia, stromal fibrosing, and fibrosing around coronary artery ([5]; angiotensin II 3.2 mg/kg/day plus 5 mg/kg/day compound for two weeks): markedly suppressed
Heart weight/body weight ([5]; angiotensin II 3.2 mg/kg/day plus Am80 5 mg/kg/day for two weeks, control mice 5.65 ± 0.195 mg/g): 4.78 ± 0.170 mg/g

CN1c2cc3c(cc2N=C(c2ccc(C(=O)O)cc2)c2ccccc21)C(C)(C)CCC3(C)C [LE135, 4-(5H-7,8,9,10-tetra-hydro-5,7,7,10,10-pentamethylbenzo[e]naphtho[2,3-b][1,4]-diazepin-13-yl)benzoic acid]
granulation (in words) [6]: strong granulation was observed
